Data on two compounds can be found in patent publication US10399968B2, “Hydroxyalkyl thiadiazole derivatives” (Daiichi Sankyo Company, Limited, priority 2015, dated 2019).

≈ marks a conversion by molar mass, not a printed value. Where two headings read alike, the source gives them in different places.

Series [1] is described as follows: Animal infection models (background statement). The following applies: in vivo.
A short description of series [2]: Solubility for oral absorption (background statement). The format is physicochemical. The following applies: compared to compounds disclosed in this patent application.
The target of series [3] is Clostridium difficile DNA gyrase (Clostridioides difficile, UniProt Q18C89). The experiment in a line: DNA supercoiling inhibition assay. The format is biochemical. Particulars: supercoiling of relaxed pBR322 DNA, 60 minutes at 37° C. On the procedure: DNA supercoiling assays (30 μL reaction) were performed in a buffer containing 15 mM Tris-HCl pH 7.5, 13% glycerol, 6 mM MgCl2, 0.1 mg/mL BSA, 70 mM KCl, 1 mM dithioerythritol, 400 ng of DNA substrate (relaxed pBR322 DNA) and different concentrations of test compounds and/or standards. The dilutions of test compounds and standards were prepared in 20% dimethylsulfoxide (DMSO) and added 3 μL/reaction. The reaction was started by adding 2 μL amounts of Clostridium difficile DNA gyrase into the reaction mixtures and reactions were allowed to proceed for 60 minutes at 37° C. A reaction was carried out by adding 3 μL of 20% DMSO instead of test compound as full reaction control, and another reaction was carried out by adding sterile water instead of the enzyme as no reaction control.
Chain of Clostridium difficile DNA gyrase (Q18C90 entry or part of it): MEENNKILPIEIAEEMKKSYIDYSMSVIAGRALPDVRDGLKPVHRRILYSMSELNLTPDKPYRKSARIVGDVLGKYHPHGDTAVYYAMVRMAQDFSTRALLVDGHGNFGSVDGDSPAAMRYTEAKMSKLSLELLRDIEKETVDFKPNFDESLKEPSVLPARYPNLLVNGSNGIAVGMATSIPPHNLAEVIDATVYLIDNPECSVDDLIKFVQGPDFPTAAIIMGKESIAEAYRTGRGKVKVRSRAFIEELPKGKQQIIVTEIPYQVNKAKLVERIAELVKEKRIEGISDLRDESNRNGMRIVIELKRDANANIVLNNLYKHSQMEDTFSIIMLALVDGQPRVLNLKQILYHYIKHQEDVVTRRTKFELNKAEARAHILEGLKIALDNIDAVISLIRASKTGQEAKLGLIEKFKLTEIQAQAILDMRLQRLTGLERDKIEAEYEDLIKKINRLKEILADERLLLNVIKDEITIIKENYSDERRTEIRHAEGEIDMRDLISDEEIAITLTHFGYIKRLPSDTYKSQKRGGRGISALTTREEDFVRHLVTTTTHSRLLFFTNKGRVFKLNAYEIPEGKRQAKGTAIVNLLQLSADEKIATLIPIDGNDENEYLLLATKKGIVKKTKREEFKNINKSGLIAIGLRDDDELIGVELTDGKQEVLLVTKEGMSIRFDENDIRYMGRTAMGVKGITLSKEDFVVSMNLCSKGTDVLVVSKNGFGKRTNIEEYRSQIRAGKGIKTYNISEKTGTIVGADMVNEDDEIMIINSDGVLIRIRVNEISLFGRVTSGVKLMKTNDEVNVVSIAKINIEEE
Chain of Clostridium difficile DNA gyrase (Q18C89 entry or part of it): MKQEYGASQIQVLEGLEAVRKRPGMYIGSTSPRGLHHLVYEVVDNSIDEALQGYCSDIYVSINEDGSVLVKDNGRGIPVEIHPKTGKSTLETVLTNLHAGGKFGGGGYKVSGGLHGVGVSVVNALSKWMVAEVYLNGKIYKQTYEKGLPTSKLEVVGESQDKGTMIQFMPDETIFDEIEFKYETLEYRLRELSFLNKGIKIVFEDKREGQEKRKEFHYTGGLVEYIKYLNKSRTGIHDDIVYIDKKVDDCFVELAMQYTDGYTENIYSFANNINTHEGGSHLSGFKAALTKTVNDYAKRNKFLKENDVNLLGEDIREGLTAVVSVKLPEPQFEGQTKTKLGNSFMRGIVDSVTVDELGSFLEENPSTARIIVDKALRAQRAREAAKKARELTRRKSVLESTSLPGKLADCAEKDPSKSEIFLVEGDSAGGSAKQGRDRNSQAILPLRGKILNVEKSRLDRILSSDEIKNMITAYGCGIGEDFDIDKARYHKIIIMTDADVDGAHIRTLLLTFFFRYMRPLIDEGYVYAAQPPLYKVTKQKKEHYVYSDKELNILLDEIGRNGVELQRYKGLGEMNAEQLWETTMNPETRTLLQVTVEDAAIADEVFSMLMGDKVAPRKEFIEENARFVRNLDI
Reactions were stopped by the addition of 5 μL of 6×loading dye and were analyzed by electrophoresis through 1.0% agarose gels with 1×TAE running buffer. Gels were run at 60 V for 3 hours, stained with EtBr, and visualized by Gel Doc system (BioRad). Intensity of the supercoiled DNA bands was quantified, and the IC50 of Clostridium difficile DNA gyrase was calculated using Graph Pad Prism.

The subject of the next series is S. aureus ATCC 29213. Put plainly: Susceptibility of bacteria, broth microdilution MIC. The format is cell-based. Particulars: Staphylococcus aureus, ATCC29213. On the procedure:
The antibacterial activity of the compounds of the present invention was tested by the broth microdilution method. The assay was carried out according to the CLSI guidelines for managing the procedures of susceptibility tests: “M7-A7 Methods for Dilution Antimicrobial Susceptibility Tests for Bacteria That Grow Aerobically; Approved Standard-Seventh Edition (2006)”. Test strains were grown on appropriate agar plates overnight. A broth containing the test compound diluted serially 2-fold and diluents were dispensed at 100 μL to each well of a 96-well microplate. As a growth control, a well with a broth not containing the test compound was also prepared. Colonies grown on the plates were suspended in saline, adjusted to 0.5 McFarland (OD625=0.08 to 0.10) using a colorimeter, and then diluted 10-fold with saline. The bacterial suspension was inoculated at 4 μL into each well of the microplate using a bacterial suspension inoculation apparatus. The inoculated microplate was incubated at 35° C. overnight (about 20 hours). The growth condition was observed by the naked eye, and the minimum concentration to inhibit bacterial proliferation was defined as a minimum inhibitory concentration (MIC). The MICs of compounds disclosed herein for E. faecium, Streptococcus pneumoniae and Haemophilus influenzae are shown in Table 2, while for S. aureus in Table 3.

Series [4] is described as follows: Solubility in water (JP1 / JP2 fluids). Particulars: thermodynamic from solid. The format is physicochemical. The procedure:
A 10 mmol/L solution of the test compound was prepared in DMSO and dispensed 100 μL of 10 mmol/L DMSO stock solutions into labeled glass tubes in duplicate, one for Japanese Pharmacopeia First Fluid (JP1) and second for Japanese Pharmacopeia Second Fluid (JP2). After evaporation of DMSO from each tube, 500 μL of JP1 and JP2 fluid were added in each tube, respectively. These tubes were sonicated for 1 minute and placed on shaker for 30 minutes with an interval of 30 seconds at every 5 minute. Tubes were placed in dark at room temperature for 1 hour and solution was filtered through membrane filter. The filtrate was diluted 2-fold and 10-fold. The resulting test solutions was analyzed and quantified against the standards using UPLC (standard preparation—10 mmol/L solution in DMSO is serially diluted with 50% aqueous acetonitrile solution to prepare 2 solutions; 100 μmol/L standard solution and 5 μmol/L standard solutions).

The next series concerns P. acnes IHMA 775486. The experiment in a line: Susceptibility of P. acnes, agar dilution MIC. The following applies: Cutibacterium acnes, IHMA775486, anaerobic. The format is cell-based. The procedure: (§1) The antibacterial activity of the compounds of the present invention against P. acnes clinical isolates was tested by the agar dilution method. The assay was carried out according to the CLSI guidelines document (Clinical and Laboratory Standards Institute, 2012 & 2016). The test strains were spread on supplemented Brucella agar (SBA) plates and grown for 42 to 48 hours at 36° C. under anaerobic condition. The test compound dilutions were prepared with Brucella broth and SBA plates containing dilution of test compound were prepared. As an anaerobic growth control and to check the aerobic contamination, plates not containing the test compound were also prepared. Colonies grown on plates were suspended with Brucella broth to adjust the turbidity to 0.5 McFarland using a densitometer. Suspension (1-2 μL) of the test strains was inoculated onto each agar surface by using a bacterial suspension inoculation apparatus (multipoint inoculator). After anaerobic incubation for 42 to 48 hours at 36° C., absence and presence of growth of each strain on growth control plates and test compounds plate were examined with unaided eye. The MIC was determined at which a marked reduction occurs in the appearance of growth on the test plate as compared to that of growth on the anaerobic control plates.

In a further series the test system is P. acnes IHMA 103740. The experiment in a line: Susceptibility of P. acnes, agar dilution MIC. In kind it is cell-based. The following applies: Cutibacterium acnes, IHMA103740, anaerobic. On the procedure:
as §1
A general note: In agar dilution the substance is mixed into plates at graded concentrations.

The test system of the next series is P. acnes ATCC 6921. The experiment in a line: Susceptibility of P. acnes, agar dilution MIC. The format is cell-based. Particulars: Cutibacterium acnes, ATCC6921, anaerobic. The procedure:
as §1

In a further series the test system is P. acnes ATCC 6523. Put plainly: Susceptibility of P. acnes, agar dilution MIC. In kind it is cell-based. Particulars: Cutibacterium acnes, ATCC6523, anaerobic. The procedure:
as §1

The subject of series [5] is Clostridium difficile 2009155, a NAP1/027 strain. The experiment in a line: Hamster CDI model. The format is in vivo. Particulars: 0.3 mg/kg/day by oral route, 5 days. The procedure: The in vivo efficacy of test compounds were evaluated in a hamster CDI model caused by Clostridium difficile 2009155, a NAP1/027 strain. Syrine hamsters (6-8-weeks old) were primed with a single subcutaneous injection of clindamycin (30 mg/kg) 1-5 days prior to infection. Hamsters were infected by oral gavage with 1 ml of spore suspension ([…]) prepared in PBS. The drug was administered to the hamsters 6 hours post infection by oral or subcutaneous route at an interval of 24 hours for 5 days. The death and survival of the non-treated group and the drug-administered group were recorded once daily for 35 days.

Series [6] concerns Clostridium difficile ATCC 43255. Put plainly: Susceptibility of Clostridium difficile, agar dilution MIC. In kind it is cell-based. The following applies: Clostridioides difficile, ATCC43255, anaerobic. On the procedure:
The antibacterial activity of the compounds of the present invention against Clostridium difficile clinical isolates was tested by the agar dilution method. The assay was carried out according to the CLSI guidelines for managing the procedures of susceptibility tests “M11-A8, Methods for Antimicrobial Susceptibility Testing of Anaerobic Bacteria; Approved Standard-Eighth Edition. CLSI document (2012)”.
The test strains were spread on supplemented Brucella agar (SBA) plates and grown at 36° C. under anaerobic condition for 42 to 48 hours. The test compound dilutions were prepared with Brucella broth and SBA plates containing dilution of test compound were prepared. As an anaerobic growth control, plates not containing the test compound were also prepared. Colonies grown on plates were suspended with Brucella broth to adjust the turbidity to 0.5 McFarland using a densitometer. Suspension (1-2 μL) of the test strains was inoculated onto each agar surface by using a bacterial suspension inoculation apparatus. After anaerobic incubation at 36° C. for 42 to 48 hours, absence and presence of growth of each strain were examined with unaided eye. The MIC was determined at which a marked reduction occurs in the appearance of growth on the test plate as compared to that of growth on the anaerobic control plates.

Series [7] relates to N. gonorrhoeae clinical isolates. The experiment in a line: Susceptibility of N. gonorrhoeae, agar dilution MIC. The format is cell-based. The procedure: The antibacterial activity of the compounds of the present invention against N. gonorrhoeae clinical isolates was tested by the agar dilution method [Clinical and Laboratory Standards Institute, 2016]. The test strains were spread on chocolate agar plates and grown for 20-24 h at 36° C. in 5% carbon dioxide. The test compound dilutions were prepared with broth and agar MIC plates were prepared using GC agar base supplemented with haemoglobin and 1% IsoVitaleX plates. As growth control plates not containing the test compound were also prepared. Colonies grown on plates were suspended with broth to adjust the turbidity to 0.5 McFarland using a densitometer. Suspension (1-2 μL) of the test strains was inoculated onto each agar surface by using a bacterial suspension inoculation apparatus (multipoint inoculator). After aerobic incubation for 20-24 h at 36° C. in 5% carbon dioxide, absence and presence of growth of each strain on growth control plates and test compounds plate were examined with unaided eye. The MIC was determined at which a marked reduction occurs in the appearance of growth on the test plate as compared to that of growth on the aerobic control plates.

A word on the solubility: it is the concentration that dissolves in the medium under given conditions. `CCO[C@H]1CN(c2nncs2)CC[C@H]1NC(=O)c1nc(Cl)c(CC)[nH]1` [Compound No. 150]: the “efficacy in animal infection models” value in series [1] is on record as “not being efficacious”. Further, the solubility result in series [2] is listed as “low”.

Usually IC50 stands for the concentration that inhibits the measured activity by half. The low end stands for greater potency in that assay, the high end for weaker potency in that assay. By MIC is commonly meant the least concentration at which growth counts as inhibited. High values mean a need for much substance, low ones inhibition by little substance. In [3], `CCc1[nH]c(C(=O)N[C@@H]2CCN(c3nnc(C(C)(O)CO)s3)C[C@@H]2OC)nc1Cl` (stereo in doubt) [Compound No. 10, 4-Chloro-N-[(3S,4R)-1-{5-[(2R)-1,2-dihydroxypropan-2-yl]-1,3,4-thiadiazol-2-yl}-3-methoxypiperidin-4-yl]-5-ethyl-1H-imidazole-2-carboxamide] had an IC50 of 60.7 nM. For the same compound, the MIC in the series on S. aureus ATCC 29213 worked out at 1 µg/mL (≈ 2.25 µM); against P. acnes IHMA 775486, 0.125 µg/mL (≈ 0.281 µM); in the series with P. acnes IHMA 103740, 0.125 µg/mL (≈ 0.281 µM); with P. acnes ATCC 6921, 0.125 µg/mL (≈ 0.281 µM); in the series on P. acnes ATCC 6523, 0.125 µg/mL (≈ 0.281 µM); in series [6], 0.06 µg/mL (≈ 0.135 µM). The compound also returned an MIC in series [7] of 0.125 µg/mL (≈ 0.281 µM). Further, the solubility at 30 min in series [4] (Japanese Pharmacopeia First Fluid (JP1), pH 1.2, simulated gastric fluid, read-out: Solubility JP1) is 887 µg/mL (≈ 1990 µM); in [4] (Japanese Pharmacopeia Second Fluid (JP2), pH 6.8, aqueous buffer, read-out: Solubility JP2), 429 µg/mL (≈ 964 µM). Also, the “survival on day 35” value in series [5] came to 100%.
